The values below come from paper PMC7226586 (Journal of Medicinal Chemistry, 2019).

Entries after “also recorded” stand apart in the source; their conditions may differ.

Data set [1] has as its target CYP46A1 allosteric sites (EFV binding site, Glu binding site) (Homo sapiens, UniProt Q9Y6A2). The data set can be described thus: Mapping of the allosteric site. The format is biochemical. To be noted: for allosteric site of binding: from co-incubations and mutants; for P450 activation with replacements within the Glu-binding site: CYP46A1 mutants K358A, F416A and Y427A; for P450 activation with replacements within the Glu-binding site / P450 activation with replacements within the EFV-binding site: 20 μM compound; for P450 activation with replacements within the EFV-binding site: CYP46A1 mutants R415A and F405A.

For data set [2], the target named is substrate-free CYP46A1 (Homo sapiens, UniProt Q9Y6A2). The data set can be described thus: Spectral titrations of substrate-free CYP46A1. To be noted: for spectral response type, substrate-free CYP46A1: P450 difference spectrum. The format is binding.
Data set [3] deals with cholesterol-bound CYP46A1 (Homo sapiens, UniProt Q9Y6A2). Put plainly: Spectral titrations of cholesterol-bound CYP46A1. The format is binding. To be noted: 20 μM cholesterol; for spectral response fit, cholesterol-bound CYP46A1 / spectral response type, cholesterol-bound CYP46A1: 18 °C.
Data set [4] concerns the target purified recombinant CYP46A1 (Homo sapiens, UniProt Q9Y6A2). The data set can be described thus: CYP46A1 enzyme assay. The format is biochemical. To be noted: for shape of concentration dependence curve of CYP46A1 activity / CYP46A1 inhibition at the concentrations tested: 0–100 μM compound; for effect of co-incubation with L-Glu on CYP46A1 activation / maximal activation in the presence of L-Glu (fold): 100 μM L-Glu; for effect of co-incubation with L-Glu on CYP46A1 activation / effect of co-incubation with (S)-EFV on CYP46A1 activation / maximal activation in the presence of L-Glu (fold): 20 μM compound; for CYP46A1 inhibition at the 60–100 μM concentrations: 60–100 μM compound; for effect of co-incubation with (S)-EFV on CYP46A1 activation: 20 μM (S)-EFV.

In data set [5] the target is CYP46A1 (Homo sapiens, UniProt Q9Y6A2). Put plainly: Stopped-flow kinetics of compound binding to and release from CYP46A1.
The nature of data set [6]: Cholesterol binding to HPCD. To be noted: read-out: Kd of cholesterol for HPCD; 50 mM KPi buffer (pH 7.2) containing 100 mM NaCl at 24 °C.
For data set [7] the following is noted: concentrations mimicking the 600 mg/day EFV dose; cited from earlier work.
For data set [8] the following is noted: plasma of EFV-treated subjects; cited from earlier work.
For data set [9] the following is noted: cited from earlier work.

As for `O=C1CC(C#CC2CC2)(C(F)(F)F)c2cc(Cl)ccc2N1` (racemic) [rac-8], the “allosteric site of binding” value in data set [1] is “preferential EFV-site binding”. The “fit of spectral titration curve, substrate-free CYP46A1” value in [2] is “hyperbolic”. In data set [2] (18 °C), the “spectral response type, substrate-free CYP46A1” value is given as “type 1”. Moreover, in data set [3], the “fit of spectral titration curve, cholesterol-bound CYP46A1” value is “sigmoidal”; the “spectral response fit, cholesterol-bound CYP46A1” value is given as “S”; the “spectral response type, cholesterol-bound CYP46A1” value is on record as “reverse type 1-like”. In addition, in [4], the “CYP46A1 activation compared with that with (S)-EFV” value is on record as “similar”, the “shape of concentration dependence curve of CYP46A1 activity” value (shortened to “shape”) was “bell-shaped” and the “effect of co-incubation with L-Glu on CYP46A1 activation” value (“effect of co-incubation with L-Glu” for short) is listed as “synergistically activated”.

For the compound `O=C1Nc2cc(O)c(Cl)cc2C(C#CC2CC2)(C(F)(F)F)O1` (racemic) [rac-2], the “allosteric site of binding” value in data set [1] was “both EFV- and Glu-binding sites”. Besides, in data set [2], the “fit of spectral titration curve, substrate-free CYP46A1” value was “hyperbolic”. Moreover, the “spectral response type, substrate-free CYP46A1” value in data set [2] (18 °C) is listed as “type 2”. For the same compound, in data set [3], the “fit of spectral titration curve, cholesterol-bound CYP46A1” value was “sigmoidal”; the “spectral response fit, cholesterol-bound CYP46A1” value is listed as “S”; the “spectral response type, cholesterol-bound CYP46A1” value is “reverse type 1-like”. Besides, in data set [4], the “shape” value is “bell-shaped”, the “effect of co-incubation with L-Glu” value is listed as “synergistically activated” and the “CYP46A1 inhibition at the 60–100 μM concentrations” value is on record as “did not inhibit”.

As to `CCCC#CC1(C(F)(F)F)OC(=O)Nc2ccc(Cl)cc21` (racemic) [rac-9], in data set [1], the “allosteric site of binding” value is given as “preferential EFV-site binding”. Also, the “fit of spectral titration curve, substrate-free CYP46A1” value in data set [2] is given as “hyperbolic”. In addition, the “spectral response type, substrate-free CYP46A1” value in [2] (18 °C) is listed as “type 1”. Besides, in [3], the “fit of spectral titration curve, cholesterol-bound CYP46A1” value was “sigmoidal”; the “spectral response fit, cholesterol-bound CYP46A1” value was “S”; the “spectral response type, cholesterol-bound CYP46A1” value was “reverse type 1-like”. For the same compound, in data set [4], the “CYP46A1 activation compared with that with (S)-EFV” value is reported as “lower”, the “shape” value was “bell-shaped” and the “effect of co-incubation with L-Glu” value is listed as “synergistically activated”.

`CC(C)CCC[C@@H](C)[C@H]1CC[C@H]2[C@@H]3CC=C4C[C@@H](O)CC[C@]4(C)[C@H]3CC[C@]12C` [cholesterol]: the “calculated kon higher than that for rac-3” value in [5] was 1.9 fold. The “calculated kon lower than that for (S)-EFV” value in data set [5] is 1.7 fold. Also, the koff in data set [5] (read-out: experimental koff (s^–1)) was found to be 0.012 ± 0.002 s⁻¹. Also, the Kd in data set [2] (Kd for substrate-free CYP46A1 (M), cholesterol, from an apparent Kd of 80 nM [20] after the correction for HPCD binding) is 9e-09 M; in data set [6] it was 540 µM.

Turning to `O=C1Nc2c(O)cc(Cl)cc2C(C#CC2CC2)(C(F)(F)F)O1` (racemic) [rac-1], the “fit of spectral titration curve, substrate-free CYP46A1” value in data set [2] is recorded as “hyperbolic”. Besides, the “spectral response type, substrate-free CYP46A1” value in [2] (18 °C) is listed as “type 2”. For the same compound, in data set [3], the “fit of spectral titration curve, cholesterol-bound CYP46A1” value was “sigmoidal” and the “spectral response type, cholesterol-bound CYP46A1” value is recorded as “reverse type 1-like”. Moreover, in data set [4], the “shape” value was “bell-shaped” and the “CYP46A1 inhibition at the 60–100 μM concentrations” value is “did not inhibit”.

As to `O=C1Nc2c(O)cc(Cl)cc2C(C#CC2(O)CC2)(C(F)(F)F)O1` (racemic) [rac-3], in data set [1], the “P450 activation with replacements within the Glu-binding site” value was “largely reduced or abolished”, the “P450 activation with replacements within the EFV-binding site” value is reported as “not significantly affected” and the “allosteric site of binding” value is reported as “mainly with the allosteric site for Glu”. In addition, the “kon lower than that of (S)-EFV” value in data set [5] was 3 fold. The “mechanism of binding to substrate-free CYP46A1” value in data set [5] (stopped-flow experiments) is “conformational-selection”. For the same compound, the “rates of binding (kobserved) lower than those for (S)-EFV” value in data set [5] (substrate-free CYP46A1) was at least 7 fold. In data set [5] (substrate-free CYP46A1, 15–30 μM compound), the “spectral binding at 15–30 μM, stopped-flow” value is given as “essentially no spectral binding”. The “fit of spectral titration curve, substrate-free CYP46A1” value in [2] is given as “hyperbolic”. In data set [2] (18 °C), the “spectral response type, substrate-free CYP46A1” value is “type 2”. For the same compound, the “difference in the apparent spectral Kd versus (S)-EFV” value in [2] (substrate-free CYP46A1) was found to be 2 fold. For the same compound, in [3], the “fit of spectral titration curve, cholesterol-bound CYP46A1” value is “hyperbolic” and the “spectral response type, cholesterol-bound CYP46A1” value is listed as “reverse type 1-like”. For the same compound, in data set [4], the “shape” value was “essentially hyperbolic”, the “effect of co-incubation with (S)-EFV on CYP46A1 activation” value (“effect of co-incubation with (S)-EFV” below) was “synergistic CYP46A1 activation” and the “effect of co-incubation with L-Glu” value was “lower”.

On to `O=C1Nc2c(O)cc(Cl)cc2[C@@](C#CC2CC2)(C(F)(F)F)O1` [(S)-1, (S)-8-hydroxyEFV], for which the “cell damage or death in cell culture” value in data set [7] is “induce cell damage or death”. The “allosteric site of binding” value in data set [1] was “both EFV- and Glu-binding sites”. Further, the plasma level in [8] is 315 to 2160 ng/mL. Also, in data set [2], the “fit of spectral titration curve, substrate-free CYP46A1” value is listed as “hyperbolic”. The “spectral response type, substrate-free CYP46A1” value in [2] (18 °C) is “type 2”. In addition, the cerebrospinal fluid level in data set [9] is 3.1 to 5.3 ng/mL. Besides, in data set [3], the “fit of spectral titration curve, cholesterol-bound CYP46A1” value is “sigmoidal”; the “spectral response fit, cholesterol-bound CYP46A1” value is “S”; the “spectral response type, cholesterol-bound CYP46A1” value is given as “reverse type 1-like”. Also, in data set [4], the “shape” value is “bell-shaped”, the “effect of co-incubation with L-Glu” value is listed as “synergistically activated” and the “CYP46A1 inhibition at the 60–100 μM concentrations” value is “did not inhibit”.

For the compound `O=C1Nc2cc(O)c(Cl)cc2[C@@](C#CC2CC2)(C(F)(F)F)O1` [7-hydroxyEFV, (S)-7-hydroxyEFV], the plasma level in [8] is 8.8 to 225 ng/mL. In addition, in [9], the cerebrospinal fluid level is reported as 0.63 ng/mL.

For `FC(F)(F)[C@@]1(C#CC2CC2)OCNc2ccc(Cl)cc21` [(S)-6], in data set [1], the “P450 activation with replacements within the Glu-binding site” value is “largely reduced or abolished”, the “P450 activation with replacements within the EFV-binding site” value is “not significantly affected” and the “allosteric site of binding” value is on record as “mainly with the allosteric site for Glu”. Also, the “fit of spectral titration curve, substrate-free CYP46A1” value in [2] was “hyperbolic”. In addition, the “spectral response type, substrate-free CYP46A1” value in data set [2] (18 °C) was “type 1”. Besides, the “spectral response type, cholesterol-bound CYP46A1” value in data set [3] was “did not seem to elicit a quantifiable spectral response; also recorded: no spectral response”. For the same compound, in data set [4], the “CYP46A1 activation compared with that with (S)-EFV” value is listed as “lower”, the “CYP46A1 inhibition at the concentrations tested” value is reported as “did not inhibit”, the “shape” value is given as “bell-shaped” and the “effect of co-incubation with (S)-EFV” value is given as “synergistic CYP46A1 activation”. In [4], the “maximal activation in the presence of L-Glu (fold)” value was “abolished” and the “effect of co-incubation with L-Glu” value is recorded as “abolished”.

Regarding `CC1Nc2ccc(Cl)cc2C(C#CC2CC2)(C(F)(F)F)O1` (racemic) [rac-7], in data set [1], the “P450 activation with replacements within the Glu-binding site” value is on record as “largely reduced or abolished”, the “P450 activation with replacements within the EFV-binding site” value is recorded as “not significantly affected” and the “allosteric site of binding” value was “mainly with the allosteric site for Glu”. For the same compound, the “fit of spectral titration curve, substrate-free CYP46A1” value in data set [2] is given as “hyperbolic”. In addition, the “spectral response type, substrate-free CYP46A1” value in data set [2] (18 °C) is on record as “type 1”. Further, the “spectral response type, cholesterol-bound CYP46A1” value in [3] is “did not seem to elicit a quantifiable spectral response; also recorded: no spectral response”. For the same compound, in [4], the “CYP46A1 activation compared with that with (S)-EFV” value is given as “lower”, the “shape” value is reported as “bell-shaped”, the “effect of co-incubation with (S)-EFV” value is reported as “synergistic CYP46A1 activation” and the “maximal activation in the presence of L-Glu (fold)” value is on record as “abolished”. Moreover, the “effect of co-incubation with L-Glu” value in data set [4] is “abolished”.

As to `O=C1Cc2ccc(Cl)cc2C(C#CC2CC2)(C(F)(F)F)O1` (racemic) [rac-5], the “allosteric site of binding” value in [1] is “both EFV- and Glu-binding sites”. Moreover, the “fit of spectral titration curve, substrate-free CYP46A1” value in [2] is recorded as “sigmoidal”. For the same compound, in [2] (18 °C), the “spectral response fit, substrate-free CYP46A1” value was “S” and the “spectral response type, substrate-free CYP46A1” value is “type 1”. In [3], the “spectral response type, cholesterol-bound CYP46A1” value is given as “did not seem to elicit a quantifiable spectral response; also recorded: no spectral response”. Besides, in data set [4], the “CYP46A1 activation compared with that with (S)-EFV” value is reported as “lower”, the “CYP46A1 inhibition at the concentrations tested” value was “did not inhibit”, the “shape” value is on record as “sigmoidal-like” and the “effect of co-incubation with L-Glu” value was “synergistically activated”.

What is called koff is the rate constant with which the complex falls apart.
